These results are taken from PMC7287649, “Hypoxia-Activated Prodrug Derivatives of Carbonic Anhydrase Inhibitors in Benzenesulfonamide Series: Synthesis and Biological Evaluation” (Molecules, 2020).

In data set [1] the test system is HT29 cells. The data set can be described thus: alamarBlue cell viability assay, HT29. As to conditions: for IC50: Homo sapiens, HT-29. In kind it is cell-based, human. As for the experimental part: (§1) Human colorectal HCT116 and HT29 carcinoma cells were cultured in Dulbecco’s Modified Eagle Medium (DMEM, Lonza) supplemented with 10% fetal bovine serum and 1% PenStrep. Cells were exposed to anoxic conditions for 24 h in a hypoxic chamber (MACS VA500 microaerophilic workstation, Don Whitley Scientific, Bingley, UK) with an atmosphere consisting of ≤0.02% O2, 5% CO2 and residual N2. Normoxic cells were grown in regular incubators with 21% O2, 5% CO2 at 37 °C.
(§2) The cytotoxic efficacy of the bio-reducible derivatives was determined based on cell viability assays using alamarBlue® (Invitrogen). In short, HT29 and HCT116 were seeded in 96-well plates and allowed to attach overnight. On the following day, the plates were exposed to normoxia or anoxia and medium was replaced with pre-incubated normoxic or anoxic DMEM. Compounds were dissolved in DMSO (0.5%, Sigma-Aldrich) and final concentrations were made with pre-incubated anoxic or normoxic DMEM and added to the wells after 24 h of exposure. Cells were exposed to compounds for a total of 2 h, after which the medium was washed off and replaced with fresh medium. Cells were allowed to grow for an additional 72 h under normoxic conditions prior to measurement. Cells were incubated with alamarBlue® for 2 h during normoxic conditions, which corresponds with their metabolic function, a measure for cell viability. Fluorescence was measured using plate reader (FLUOstar Omega, BMG LABTECH, Ortenberg, Germany) using a fluorescence excitation wavelength of 540–580 nm.
(§3) GraphPad Prism (version 5.03, GraphPad Software, San Diego, CA, USA) was used for all statistical analyses. For the cytotoxic compounds, IC50 values were estimated with the curve of the log (inhibitor) vs. normalized response (Variable slope).

Data set [2] concerns HCT116 cells. As to the kind of experiment: alamarBlue cell viability assay, HCT116. It is filed as cell-based, human. As to conditions: 2 h exposure, 72 h regrowth. How it is done: as §1, §2, §3
On the technique in general: Alamar Blue is a resazurin reagent that responds to reducing activity.

Data set [3] relates to HT29 cells. The data set can be described thus: clonogenic assay, HT29. In kind it is cell-based, human. Conditions: HT29, normoxia or anoxia, tested concentrations (10 to 100 μM), 30 min exposure. How it is done: as §1
(§4) Clonogenic survival HT29 and HCT116 cells were seeded with a high density for CA IX-dependent extracellular acidification. […] These cells were exposed to 23:30 h normoxic or anoxic conditions and 30 min to drugs after which cells were trypsinized and reseeded in triplicate with known cell numbers. Cells were allowed to grow for 9 (HCT116) and 14 (HT29) days to form colonies that were quantified after staining and fixation with 0.4% methylene blue in 70% ethanol. Surviving fractions were calculated and compared to control survival curves produced in the same experiment without compound treatment.

The test system of data set [4] is HCT116 cells. As to the kind of experiment: clonogenic assay, HCT116. It is filed as cell-based, human. As to conditions: HCT116, normoxia or anoxia, tested concentrations (10 to 100 μM), 30 min exposure. As for the experimental part: as §1, §4
Data set [5] in a line: zebrafish embryo lethality (LC50). In kind it is in vivo. As to conditions: AB, zebrafish, in vivo, zebrafish embryos from 24 hpf, end of 5 days of exposure. As for the experimental part: (§5) The hypoxia-activated prodrugs were screened for their toxicity using 24-h post-fertilization zebrafish embryos as described earlier. The compounds were either dissolved in Embryonic medium (5.0 mM NaCl, 0.17 mM KCl, 0.33 mM CaCl2, 0.33 mM MgSO4, and 0.1% w/v Methylene Blue (Sigma-Aldrich, Darmstadt, Germany) or in dimethyl sulfoxide (DMSO) (Sigma-Aldrich, St. Louis, MO, USA) to prepare 100 mM stock solutions. Before the start of each experiment, the series of dilutions were made from the above stock in the embryonic medium.
(§6) The wild-type adult zebrafish (AB strains) were maintained at 28.5 °C in an incubator [35]. In each breeding tank, about embryos 3–5 pairs of male and female fish were set up overnight for collecting the embryos. The following morning, 1–2-h post-fertilization (hpf) embryos were collected in a sieve and rinsed with embryonic medium and kept the collected embryos in an incubator at 28.5 °C overnight. The toxicity evaluation studies of the compounds were performed using the fish that were 24-hpf. All the zebrafish experiments were performed at the zebrafish core facility, Tampere University, Finland, and according to the protocol used in our laboratory.
(§7) The LC50 values for all the three prodrugs were determined using 24-hpf embryos using […] different concentrations for each compound. We used a minimum of 30 zebrafish larvae for each concentration of the compound [28, 30, 36, 42]. The 24-hpf larvae were exposed to different concentrations of the inhibitors that ranged from 20 μM to […]. A dose response curve (DRC) was calculated using the DRM (model fitting function) of the DRC R package. The control group constituted an equal number of larvae not treated with any compound and the larvae that were treated with 1% DMSO. Toxicological evaluation studies were performed in 24-well plates (Corning V R Costar V R cell culture plates). In each well, we placed 1–2 24-hpf embryos in 1 mL of embryonic medium containing a diluted inhibitor. For control groups, 1% DMSO diluted in either embryonic medium or embryonic medium with no chemical compound. A minimum of three sets of experiments were carried out for each prodrug. The mortality of the larvae was checked every 24 h until 5 days after exposure to the prodrugs.

For the next data set, the system named is zebrafish embryos. As to the kind of experiment: zebrafish embryo lethality (LC50). It is filed as in vivo. Conditions: 1 mM, end of 5 days of exposure. How it is done: as §5, §6, §7
Data set [6] concerns zebrafish larvae. As to the kind of experiment: phenotypic analysis of zebrafish larvae. It is filed as in vivo. As for the experimental part:
as §5, §6
After exposure to the prodrugs, we evaluated the effects of these compound on the zebrafish larvae by analyzing the following eight phenotypic parameters: (1) mortality, (2) hatching (3) edema (4) swimming pattern, (5) yolk sack utilization, (6) heartbeat, (7) body shape, and (8) swim bladder development. The images of the developing larvae were taken using a Lumar V1.12 fluorescence microscope (Carl Zeiss MicroImaging GmbH, Göttingen, Germany) attached to a camera with a 1.5 lens (Carl Zeiss MicroImaging GmbH, Göttingen, Germany). The images were analyzed with AxioVision software versions 4.7 and 4.8 as described in our standard protocol for the assessment of the toxicity and safety of chemical compounds.

Data set [7] deals with zebrafish larvae. As to the kind of experiment: swim pattern analysis of zebrafish larvae. As to conditions: 160 µM (concentration that did not induce phenotypic defects), end of 5 days of exposure. In kind it is in vivo. As for the experimental part: The swim pattern of the zebrafish larvae was studied after 5 days of exposure to these compounds. For the analyses of swim pattern, about 15–20 zebrafish larvae after 5 days of exposure to the compounds were placed in a 35 mm × 15 mm petri dish containing embryonic medium, and the larvae were allowed to settle in the petri dish for 1 min. The movement of the zebrafish larvae was observed under the microscope for 1 min. […] The swim patterns were compared with the control group zebrafish larvae that were not treated with any inhibitor.

The next data set concerns the target hCA I (Homo sapiens, UniProt P00915). As to the kind of experiment: stopped flow CO2 hydrase assay, hCA I. Conditions: KI hCA I, mean from 3 different assays.
Another data set concerns the target hCA II (Homo sapiens, UniProt P00918). The data set can be described thus: stopped flow CO2 hydrase assay, hCA II.
The target of the next data set is hCA IX (Homo sapiens, UniProt Q16790). The data set can be described thus: stopped flow CO2 hydrase assay, hCA IX.

SMILES strings stand for the structures. Entries after “also recorded” stand apart in the source; their conditions may differ. Like-named read-outs stand apart in the source and are kept apart here.

Chain of hCA I (P00915 whole entry): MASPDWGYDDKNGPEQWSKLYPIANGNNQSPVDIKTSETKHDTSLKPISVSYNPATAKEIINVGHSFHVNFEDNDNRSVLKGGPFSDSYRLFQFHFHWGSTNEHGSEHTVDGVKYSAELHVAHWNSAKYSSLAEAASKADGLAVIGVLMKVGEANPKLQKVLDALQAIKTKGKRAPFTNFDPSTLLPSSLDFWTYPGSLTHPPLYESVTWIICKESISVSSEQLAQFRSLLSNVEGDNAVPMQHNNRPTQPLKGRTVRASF
Procedure for hCA II: (§8) An Sx.18Mv-R Applied Photophysics (Oxford, UK) stopped-flow instrument was used for assaying the CA catalyzed CO2 hydration activity. […] In particular, CO2 was bubbled in distilled deionized water for 30 min so that the water was saturated (the concentration at a specific temperature is known from literature). In addition, a CO2 assay kit (from Merck, Darmstadt, Germany) was used to measure the concentration in variously diluted solutions obtained from the saturated one (which was kept at the same temperature and a constant bubbling during the experiments). […] The uncatalyzed rates were determined in the same manner and subtracted from the total observed rates. Stock solutions of inhibitor (0.1 mM) were prepared in distilled deionized water and dilutions up to 0.01 nM were done thereafter with distilled deionized water. Inhibitor and enzyme solutions were pre-incubated together for 15 min–2 h (or longer, i.e., 4–6 h) at room temperature (at 4 °C for the incubation periods longer than 15 min) prior to assay, in order to allow for the formation of the EI complex. The inhibition constants were obtained by non-linear least-squares methods using PRISM 3 and the Cheng–Prusoff equation, as reported earlier [38, 39], and represent the mean from at least three different determinations. hCA I was purchased by Merck (Darmstadt, Germany) and used without further purification, whereas all the other hCA isoforms were recombinant ones obtained in-house as reported earlier [40].
Procedure for hCA IX: as §8

What is called LC50 is the concentration lethal to half of the exposed cells or organisms. A low value points to a more lethal substance. Usually Ki stands for a dissociation constant, usually derived from enzyme kinetics or from competition with a known ligand. In the case of `Cn1c(COC(=O)NCCc2ccc(S(N)(=O)=O)cc2)cnc1[N+](=O)[O-]` [Compound 1b, (1-methyl-2-nitro-1H-imidazol-5-yl) methyl (4-sulfamoylphenethyl) carbamate], the “HCR (IC50N/IC50A)” value with HT29 cells [1] (HT29, hypoxia selectivity cytotoxicity ratio) was greater than 2.44. Besides, in the data set with HT29 cells [1] (HT29, normoxia, 2 h exposure, 72 h regrowth), the IC50N result is on record as “no detectable cytotoxicity”. The IC50 is 204 µM in the data set on HT29 cells [1] (HT29, anoxia, 2 h exposure, 72 h regrowth, read-out: IC50A); greater than 500 µM in the data set on HT29 cells [1] (HT29, normoxia, 2 h exposure, 72 h regrowth, read-out: IC50N); 59.4 µM in the data set with HCT116 cells [2] (HCT116, anoxia, read-out: IC50A); 59.3 µM with HCT116 cells [2] (Homo sapiens, HCT-116, HCT116, anoxia, read-out: IC50A); 149 µM with HCT116 cells [2] (Homo sapiens, HCT-116, HCT116, normoxia, read-out: IC50N). The clonogenic cell survival result in the data set with HT29 cells [3] and in the data set with HCT116 cells [4] was “did not reduce clonogenic cell survival” each time. The LC50 in data set [5] is roughly 1400 µM. In addition, the “mortality of the larvae” value in the data set on zebrafish embryos is recorded as “did not cause any mortality; also recorded: no mortality observed”. Also, in the data set with zebrafish larvae [6] (20 μM–2 mM, 5 days post exposure), the “adverse effects on observable phenotypic parameters of the larvae” value is recorded as “minimal or no adverse effects”. The swim bladder development result with zebrafish larvae [6] (1000 μM, at 5 days) is given as “absence of a swim bladder”. In addition, the phenotypic abnormalities result with zebrafish larvae [6] (zebrafish larvae, 1 mM) is “no or minimal phenotypic abnormalities”. The swim pattern entry in the data set on zebrafish larvae [7] is “did not induce phonotypic abnormalities in the larvae as well as abnormal or ataxic swim movement”. Also, the Ki was determined as 0.167 µM on hCA I, 0.0306 µM at hCA II and 0.0076 µM on hCA IX.
